Results as given in publication PMC6237161, “Synthesis, preliminarily biological evaluation and molecular docking study of new Olaparib analogues as multifunctional PARP-1 and cholinesterase inhibitors” (Journal of Enzyme Inhibition and Medicinal Chemistry, 2018).
Like-named read-outs stand apart in the source and are kept apart here.

Key:
[1] = test system: breast cancer cell line MDA-MB-436; assay: MTT assay for cell growth inhibition; assay type: cell-based; settings: Homo sapiens, read-out: EC50 (μM) MDA-MB-436 cell inhibitory activity
Method: The anti-proliferative activities of synthesized compounds were assessed against breast cancer cell line MDA-MB-436 by the 3-(4, 5-Dimethylthiazol-2-yl)-2,5-diphenyltetrazolium bromide (MTT) assay. The MDA-MB-436 cell was purchased from Chinese Academy of Sciences. […]. After treated with compounds for 72 h, cells were incubated with 20 μL of 5 mg/mL MTT for 4 h. The culture medium was removed, and 150 μL DMSO was added to dissolve the formazan crystals. Wells containing only media were used for background correction. The optical density was measured spectrophotometrically at 490 nm. EC50 values were calculated using GraphPad Prism 6 software. Data were expressed as mean ± SEM.

[2] = target: T1, AChE from electric eel (EeAChE) (Electrophorus electricus, UniProt O42275); assay: biochemical
T1 construct: purchased Sigma-Aldrich
T1 sequence (O42275 24-633): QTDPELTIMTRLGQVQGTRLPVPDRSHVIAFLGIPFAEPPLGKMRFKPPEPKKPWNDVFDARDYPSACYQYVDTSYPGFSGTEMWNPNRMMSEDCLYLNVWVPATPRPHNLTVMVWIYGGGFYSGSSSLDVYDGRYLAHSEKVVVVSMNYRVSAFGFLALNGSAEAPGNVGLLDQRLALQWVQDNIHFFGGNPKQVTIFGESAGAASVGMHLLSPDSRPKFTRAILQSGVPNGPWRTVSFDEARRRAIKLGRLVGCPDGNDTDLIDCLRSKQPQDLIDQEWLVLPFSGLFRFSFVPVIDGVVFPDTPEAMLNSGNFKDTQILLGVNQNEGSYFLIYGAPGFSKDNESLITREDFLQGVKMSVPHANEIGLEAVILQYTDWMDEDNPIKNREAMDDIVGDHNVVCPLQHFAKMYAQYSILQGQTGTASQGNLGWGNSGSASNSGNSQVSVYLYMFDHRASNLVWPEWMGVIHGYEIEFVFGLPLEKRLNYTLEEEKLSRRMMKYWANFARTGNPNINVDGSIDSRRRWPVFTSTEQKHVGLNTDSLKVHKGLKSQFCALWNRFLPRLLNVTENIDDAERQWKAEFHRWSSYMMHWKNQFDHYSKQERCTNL
Method: (§1) The test compounds were dissolved in a minimum volume of DMSO (1%) and were diluted using sodium phosphate buffer (0.1 M, pH 7.4). A reaction mixture containing 20 μL sodium phosphate buffer, 100 μL DTMB (1 mM) and 40 μL AChE (0.2 U/Ml)/BChE (0.3 U/mL) was incubated with 20 μL of various concentrations of test compounds at 37 °C for 15 min followed by the addition of the substrate (20 μL) acetylthiocholine iodide (1 mM) or S-butyrylthiocholine iodide (1 mM) and incubation for another 3 min. […] The inhibition per cent was calculated by the following expression: (1-Ai/Ac) × 100, where Ai and Ac were the absorbance obtained for AChE/BChE in the presence and absence of inhibitors, respectively. […]

[3] = target: T2, BChE from equine serum (eqBChE) (Equus caballus, UniProt P81908); assay: biochemical
T2 construct: butyrylcholinesterase (eqBChE, from equine serum); purchased Sigma-Aldrich; host or cells: equine serum
T2 sequence (P81908 whole entry): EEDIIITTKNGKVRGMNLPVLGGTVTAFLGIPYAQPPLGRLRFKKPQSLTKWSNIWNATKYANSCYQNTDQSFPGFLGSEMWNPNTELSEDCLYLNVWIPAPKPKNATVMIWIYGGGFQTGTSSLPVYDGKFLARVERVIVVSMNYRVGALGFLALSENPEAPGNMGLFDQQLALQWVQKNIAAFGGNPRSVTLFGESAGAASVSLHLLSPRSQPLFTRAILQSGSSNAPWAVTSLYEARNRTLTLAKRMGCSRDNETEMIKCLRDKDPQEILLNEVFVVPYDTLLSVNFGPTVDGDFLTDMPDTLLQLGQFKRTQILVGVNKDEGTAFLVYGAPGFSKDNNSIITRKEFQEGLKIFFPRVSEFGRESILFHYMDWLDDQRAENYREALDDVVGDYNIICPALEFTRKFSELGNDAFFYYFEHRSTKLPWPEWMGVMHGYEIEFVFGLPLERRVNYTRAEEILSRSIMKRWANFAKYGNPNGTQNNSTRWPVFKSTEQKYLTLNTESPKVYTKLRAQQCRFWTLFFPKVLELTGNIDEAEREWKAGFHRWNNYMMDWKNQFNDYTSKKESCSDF
Method: as §1

PARP-1 enzyme = target: T3, PARP-1 enzyme (Homo sapiens, UniProt P09874); assay: biochemical; settings: mean ± SD, n=3; for inhibition at 0.5 µM: PARP-1, measured at the conc. of 0.5 μM, read-out: Inhibition rate (%)
T3 construct: purchased Trevigen 4690–096-K
T3 sequence (P09874 whole entry): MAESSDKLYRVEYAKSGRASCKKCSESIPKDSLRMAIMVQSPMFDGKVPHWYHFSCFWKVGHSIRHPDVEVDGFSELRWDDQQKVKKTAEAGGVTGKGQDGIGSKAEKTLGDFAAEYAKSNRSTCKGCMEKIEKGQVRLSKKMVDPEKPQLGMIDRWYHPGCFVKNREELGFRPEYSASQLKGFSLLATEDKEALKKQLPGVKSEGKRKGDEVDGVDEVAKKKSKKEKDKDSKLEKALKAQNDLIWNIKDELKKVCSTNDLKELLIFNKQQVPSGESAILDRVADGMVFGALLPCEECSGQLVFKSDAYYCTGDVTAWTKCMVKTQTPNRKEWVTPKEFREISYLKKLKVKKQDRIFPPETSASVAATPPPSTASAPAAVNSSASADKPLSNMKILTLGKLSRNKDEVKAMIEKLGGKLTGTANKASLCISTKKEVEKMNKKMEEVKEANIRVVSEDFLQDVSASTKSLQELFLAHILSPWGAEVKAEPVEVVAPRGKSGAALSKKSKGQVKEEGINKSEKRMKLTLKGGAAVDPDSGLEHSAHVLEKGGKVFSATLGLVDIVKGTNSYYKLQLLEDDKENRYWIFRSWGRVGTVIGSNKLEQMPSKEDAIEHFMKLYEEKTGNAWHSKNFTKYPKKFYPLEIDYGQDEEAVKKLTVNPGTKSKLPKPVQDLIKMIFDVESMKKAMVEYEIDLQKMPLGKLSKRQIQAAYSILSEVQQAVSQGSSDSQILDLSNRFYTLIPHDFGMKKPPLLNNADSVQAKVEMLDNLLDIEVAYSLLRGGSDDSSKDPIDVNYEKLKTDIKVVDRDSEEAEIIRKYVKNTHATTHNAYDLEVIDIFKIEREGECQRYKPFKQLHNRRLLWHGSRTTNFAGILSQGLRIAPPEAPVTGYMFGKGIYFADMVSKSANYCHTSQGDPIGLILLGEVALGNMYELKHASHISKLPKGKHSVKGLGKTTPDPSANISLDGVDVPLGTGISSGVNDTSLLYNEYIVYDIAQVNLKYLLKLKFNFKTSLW
Method: Olaparib was used as positive control. […] Then, the standard curve was drawn and the inhibition rate of each test compound was calculated.

[4] = AChE from electric eel, mean ± SD, n=3, read-out: IC50 (μM) AChE
[5] = BChE from equine serum, mean ± SD, n=3, read-out: IC50 (μM) BChE
[6] = MDA-MB-436, MTT, incubated for 72 h, mean ± SD, n=3, concentration required to reduce cell proliferation by 50%

Structure (SMILES) | EC50 ([1]; MDA-MB-436, 72 h) [µM] | IC50 [2, 4] [µM] | IC50 [3, 5] [µM] | inhibition at 0.5 µM (PARP-1 enzyme) [%] | EC50 [1, 6] [µM] | IC50 (PARP-1 enzyme) [nM] | IC50 [2] [µM] | IC50 [3] [µM]
O=C(c1cc(Cc2n[nH]c(=O)c3ccccc23)ccc1F)N1CCN(C(=O)C2CC2)CC1 [Olaparib] | 8.63 ± 1.25 | 50.95 ± 0.46 | 34.4 ± 0.64 |  |  |  |  | 
O=C(/C=C/c1ccc(Br)cc1)N1CCN(C(=O)c2cc(Cc3n[nH]c(=O)c4ccccc34)ccc2F)CC1 [5k, (E)-4-{[3-[4–(3-(4-bromophenyl)acryloyl)piperazine-1-carbonyl]-4-fluorophenyl]methyl} -2H -phthalazin-1-one] |  | 80.7 ± 4.87 | 45.8 ± 3.76 | 43.2 ± 6.54 | 112 ± 5.24 |  |  | 
COc1ccccc1/C=C/C(=O)N1CCN(C(=O)c2cc(Cc3n[nH]c(=O)c4ccccc34)ccc2F)CC1 [5e, (E)-4-{[3-[4-(3-(2-methoxyphenyl)acryloyl)piperazine-1-carbonyl]-4-fluorophenyl]methyl}-2H-phthalazin-1-one] |  | 56.9 ± 4.3 | 26.4 ± 1.93 | 62.6 ± 3.65 | 44.2 ± 1.95 |  |  | 
O=C(/C=C/c1cccc([N+](=O)[O-])c1)N1CCN(C(=O)c2cc(Cc3n[nH]c(=O)c4ccccc34)ccc2F)CC1 [5l, (E)-4-{[3-[4–(3-(3-nitrophenyl)acryloyl)piperazine-1-carbonyl]-4-fluorophenyl]methyl} -2H -phthalazin-1-one] |  | 24.6 ± 1.1 | 9.16 ± 0.91 | 95.7 ± 4.35 | 11.6 ± 2.15 | 16.1 ± 1.25 |  | 
O=C(/C=C/c1ccc(F)cc1)N1CCN(C(=O)c2cc(Cc3n[nH]c(=O)c4ccccc34)ccc2F)CC1 [5g, (E)-4-{[3-[4–(3-(4-fluorophenyl)acryloyl)piperazine-1-carbonyl]-4-fluorophenyl]methyl} -2H -phthalazin-1-one] |  | 173 ± 30 | 105 ± 12.5 | 85.6 ± 3.69 | 13 ± 2.14 | 397 ± 7.01 |  | 
CN(C)C(=O)Oc1cccc([N+](C)(C)C)c1 [Neostigmine, reference compound] |  |  |  |  |  |  | 0.04 ± 0.01 | 12 ± 0.45
O=C(/C=C/c1ccc([N+](=O)[O-])cc1)N1CCN(C(=O)c2cc(Cc3n[nH]c(=O)c4ccccc34)ccc2F)CC1 [5m, (E)-4-{[3-[4–(3-(4-nitrophenyl)acryloyl)piperazine-1-carbonyl]-4-fluorophenyl]methyl} -2H -phthalazin-1-one] |  | 12.2 ± 0.49 | 5.93 ± 0.19 | 93.2 ± 5.28 | 14 ± 1.28 | 37.9 ± 1.89 |  | 
COc1ccc(/C=C/C(=O)N2CCN(C(=O)c3cc(Cc4n[nH]c(=O)c5ccccc45)ccc3F)CC2)cc1OC [5b, (E)-4-{[3-[4–(3-(3,4-dimethoxyphenyl)acryloyl)piperazine-1-carbonyl]-4-fluorophenyl]methyl}-2H-phthalazin-1-one] |  | 45.2 ± 1.38 | 17.8 ± 0.72 | 77.2 ± 3.89 | 41.2 ± 1.95 |  |  | 
COc1ccc(/C=C/C(=O)N2CCN(C(=O)c3cc(Cc4n[nH]c(=O)c5ccccc45)ccc3F)CC2)cc1 [5c, (E)-4-{[3-[4–(3-(4-methoxyphenyl)acryloyl)piperazine-1-carbonyl]-4-fluorophenyl]methyl} -2H-phthalazin-1-one] |  | 55.8 ± 0.6 | 179 ± 5.89 | 89.2 ± 10.6 | 14.2 ± 3.16 | 144 ± 5.26 |  | 
O=C(/C=C/c1cccc(F)c1)N1CCN(C(=O)c2cc(Cc3n[nH]c(=O)c4ccccc34)ccc2F)CC1 [5i, (E)-4-{[3-[4–(3-(3-fluorophenyl)acryloyl)piperazine-1-carbonyl]-4-fluorophenyl]methyl} -2H -phthalazin-1-one] |  | 110 ± 9.18 | 33.4 ± 4.14 | 88.2 ± 5.24 | 14.2 ± 5.21 | 267 ± 9.32 |  | 
COc1ccc(OC)c(/C=C/C(=O)N2CCN(C(=O)c3cc(Cc4n[nH]c(=O)c5ccccc45)ccc3F)CC2)c1 [5f, (E)-4-{[3-[4–(3-(2,5-dimethoxyphenyl)acryloyl)piperazine-1-carbonyl]-4-fluorophenyl]methyl} -2H-phthalazin-1-one] |  | 76.9 ± 4.13 | 35.7 ± 2.98 | 75.6 ± 3.61 | 30.2 ± 3.25 |  |  | 
COc1cc(/C=C/C(=O)N2CCN(C(=O)c3cc(Cc4n[nH]c(=O)c5ccccc45)ccc3F)CC2)cc(OC)c1OC [5n, (E)-4-{[3-[4–(3-(3,4,5-trimethoxyphenyl)acryloyl)piperazine-1-carbonyl]-4-fluorophenyl]methyl} -2H -phthalazin-1-one] |  | 99.1 ± 2.21 | 65.2 ± 1.08 | 66 ± 4.82 | 31.2 ± 4.12 |  |  | 
O=C(/C=C/c1ccc(C(F)(F)F)cc1)N1CCN(C(=O)c2cc(Cc3n[nH]c(=O)c4ccccc34)ccc2F)CC1 [5h, (E)-4-{[3-[4–(3-(4-trifluoromethylphenyl)acryloyl)piperazine-1-carbonyl]-4-fluorophenyl]methyl} -2H -phthalazin-1-one] |  | 136 ± 12.5 | 56.8 ± 4.36 | 89.5 ± 12.6 | 14.8 ± 1.42 | 295 ± 8.25 |  | 
O=C(/C=C/c1ccccc1)N1CCN(C(=O)c2cc(Cc3n[nH]c(=O)c4ccccc34)ccc2F)CC1 [5a, (E)-4-{[3-[4-(3-phenylacryloyl)piperazine-1-carbonyl]-4-fluorophenyl]methyl}-2H-phthalazin-1-one] |  | 52.9 ± 3.02 | 22.4 ± 1.19 | 75.2 ± 4.84 | 38.2 ± 2.15 |  |  | 
O=C(/C=C/c1ccc(Cl)cc1)N1CCN(C(=O)c2cc(Cc3n[nH]c(=O)c4ccccc34)ccc2F)CC1 [5j, (E)-4-{[3-[4–(3-(4-chlorophenyl)acryloyl)piperazine-1-carbonyl]-4-fluorophenyl]methyl} -2H -phthalazin-1-one] |  | 86.5 ± 5.12 | 37.1 ± 2.37 | 75.5 ± 4.54 | 45.2 ± 1.68 |  |  | 
O=C(/C=C/c1ccco1)N1CCN(C(=O)c2cc(Cc3n[nH]c(=O)c4ccccc34)ccc2F)CC1 [5o, (E)-4-{[3-[4-(3-(furan-2-yl)acryloyl)piperazine-1-carbonyl]-4-fluorophenyl]methyl} -2H -phthalazin-1-one] |  | 114 ± 14.9 | 77.6 ± 9.06 | 65.2 ± 5.98 | 32.2 ± 3.58 |  |  | 
Cc1ccc(/C=C/C(=O)N2CCN(C(=O)c3cc(Cc4n[nH]c(=O)c5ccccc45)ccc3F)CC2)cc1 [5d, (E)-4-{[3-[4-(3-(4-methylphenyl)acryloyl)piperazine-1-carbonyl]-4-fluorophenyl]methyl} -2H-phthalazin-1-one] |  | 72 ± 3.84 | 27.8 ± 0.87 | 64.2 ± 4.59 | 35.1 ± 3.42 |  |  | 
